{"source": "patent EP4417607A1", "about": "“HETEROCYCLIC COMPOUND AS SOS1 INHIBITOR AND USES THEREOF” (Nanjing Zaiming Pharmaceutical Co., Ltd., priority 2021, dated 2023)", "key": {"[1]": {"assay": "Caco-2 membrane permeability and transport", "assay_type": "in vitro ADME", "conditions": "human, pH 7.4; for Papp A→B at 2 h, 10 µM: Caco-2, apical to basal; for Papp B→A at 2 h, 10 µM: Caco-2, basal to apical", "method": "The membrane permeability and transport properties of the compound of the present disclosure were determined using the following method. • I. Experimental materials and instruments • 1. Caco-2 cells (ATCC) • 2. HEPES (Solarbio 804D049), penicillin/streptomycin (Solarbio 20200109), Trypsin/EDTA (Solarbio), and PBS (Solarbio 20200620) • 3. Fetal Bovine Serum (FBS) (Sigma WXBD0055V), lucifer yellow (Sigma MKCJ3738), and NaHCO3 (Sigma SLBZ4647) • 4. Hank's balanced salt solution (Gibco 2085528), non-essential amino acid (NEAA) (Gibco 2211548), and Trypsin/EDTA (Gibco 2120732) • 5. High glucose DMEM (Corning 20319014) • 6. HTS Transwell-96 Well Permeable (Corning, 3391) • 7. Resistance detector (Millipore, Millicell® ERS-2) • 8. Cellometer® Vision (Nexcelom Bioscience) • 9. Infinite 200 PRO microplate reader (Tecan, Infinite M200PRO) • 10. Positive control compound metoprolol (Sinopharm 100084-201403), erythromycin (MCE 84550), and cimetidine (Sinopharm 100158-201406) • 11. ABI QTrap 5500 liquid chromatography-mass spectrometry system • II. Procedures • 1. Caco-2 cell culture • 1) Preparation of transport buffer (HBSS containing 25 mM HEPES, pH 7.4): 5.958 g HEPES and 0.35 g NaHCOs were accurately weighed and dissolved in 900 mL pure water. 100 mL of 10× HBSS was then added and stirred well. The pH was adjusted to 7.4, and the mixture was filtered. • 2) Preparation of Caco-2 cell culture medium: FBS, penicillin, streptomycin, kanamycin, and NEAA were added to a high glucose DMEM (containing L-glutamine) culture medium to prepare a cell culture medium containing 10% FBS, 0.1 mg/mL streptomycin, 100 units penicillin, 0.6 µg/mL kanamycin, and 1× NEAA. • 3) Cells were cultured with a T-75 flask at 37 °C with 5% CO2 in an incubator. The culture medium was discarded when cell density reached 80-90%. The cells were rinsed with 5 mL PBS. 1.5 mL Trypsin/EDTA was added. The mixture was incubated at 37 °C for 5-10 min in an incubator until the cells shed like quicksand. Finally the Trypsin/EDTA was neutralized with a FBS-containing culture medium. • 4) The cell suspension was centrifuged at 120 × g for 10 min, and the supernatant was discarded. • 5) The cells were resuspended in a cell culture medium. The cell suspension was adjusted to a density of 6.86 × 10^5 cells/mL. • 2. Caco-2 cell inoculation • 1) 50 µL of culture medium was added to the Transwell chamber per well. 25 mL of culture medium was added to the lower chamber, and the chamber was preheated at 37 °C for 1 h with 5% CO2 in an incubator. • 2) 50 µL of the cell suspension was added to the preheated Transwell chamber per well at a final density of 2.4 × 10^5 cells/cm^2 • 3) The cells were cultured for 14-18 days. The culture medium was replaced every other day, and the culture medium was replaced within 48 h after the initial inoculation. The culture medium had to be replaced the day before the experiment. • 3. Evaluation of integrity of monolayer cell membrane • 1) The cells fused and differentiated after 14 days of culture and were ready for a transport experiment. • 2) The resistance of the monolayer membrane was measured using a resistance detector. […] Transport experiment • 1) A 10 mM stock solution of the compound of the present disclosure or the positive control compound was diluted with DMSO to give a 2 mM stock solution. The 2 mM stock solution was then diluted with the transport buffer to give a 10 µM working solution of the compound of the present disclosure or the positive control compound. • 2) The Caco-2 cell plate was taken out from the incubator, washed twice with the pre-heated transport buffer, and incubated at 37 °C in an incubator for 30 min. • 3) To determine the transport rate of the compound from the apical end to the basal end (A → B), 108 µL of the working solution of the compound was added to the Transwell chamber (apical end), while 8 µL of the sample was immediately taken from the apical end to 72 µL of the transport buffer. […]"}, "[2]": {"tested_on": "DLD-1 cell subcutaneous tumor model", "assay": "Growth inhibition in DLD-1 cell subcutaneous tumor model", "assay_type": "in vivo, NU/NU mice", "conditions": "for TGI(%): 15 mg/kg, PO, BID, DLD-1 subcutaneous tumor, NU/NU mice", "source_text": "• Human colorectal cancer DLD-1 cell: ATCC, CCL-221 • RPMI-1640 culture medium: Gibco, REF: 61870-036 • Fetal bovine serum: Gibco, REF: 10091-148 • 0.25% trypsin-EDTA: Gibco, REF: 25200-072 • D-PBS (phosphate-buffered saline without calcium and magnesium ions): Hyclone, Cat. No.: SH30256.01 • Matrigel: Corning, Cat. No.: 356237\n• Animal information: NU/NU mice, female, aged 6-7 weeks, 24-30 g, purchased from Beijing Vital River Biotechnology Co., Ltd. • Cell culture: human colon cancer cell strain DLD-1 was cultured in vitro under the conditions of RPMI-1640 (cell culture medium) added with 10% fetal bovine serum and 1% Pen Strep (Gibco penicillin-streptomycin diabody), and an incubator at 37 °C with 5% CO2. The cells were digested with a 0.25% trypsin-EDTA digestive solution twice a week for passaging as per conventional practice. When cell confluence was 80%-90% and a required amount was achieved, the cells were collected and counted. Cell inoculation: 0.1 mL/(containing 5×10^6) DLD-1 cell suspension (RPMI-1640: Matrigel, volume ratio 1: 1) was inoculated subcutaneously into the right lumbar dorsal part of each mouse. On day 6 after inoculation of the cells, the mice were randomly grouped and administrated based on tumor volume. The day when random grouping was performed was day 0.\nTumor diameters were measured twice weekly using a vernier caliper. The tumor volume was calculated using the following formula: V = 0.5a × b^2, where a and b represent the long diameter and short diameter of the tumor, respectively. Mouse body weight was measured twice weekly.\nThe anti-tumor therapeutic effect of the compound was evaluated by tumor growth inhibition rate TGI (%). TGI (%) = [(1 - (average tumor volume at the end of administration in a treatment group - average tumor volume at the start of administration of the treatment group)) / (average tumor volume at the end of treatment of the solvent control group - average tumor volume at the start of treatment of the solvent control group)] × 100%."}}}
{"compound": "Cc1nc(N[C@H](C)c2cccc(C(F)F)c2F)c2cn(C3(CF)CC3)c(=O)c(N3CCOC[C@@H]3C)c2n1", "note": "[Example 40, 4-(((R)-1-(3-(difluoromethyl)-2-fluorophenyl)ethyl)amino)-6-(1-(fluoromethyl)cyclopropyl)-2-methyl-8-((S)-3-methylmorpholine)pyrido[4,3-d]pyrimidine-7(6H)-one]", "values": [{"measurement": "efflux ratio at 2 h, 10 µM", "setting": "[1]; Caco-2, Papp (B-A)/Papp (A-B)", "value": 13.1}, {"measurement": "Papp A→B at 2 h, 10 µM", "setting": "[1]", "value": 2.1, "unit": "×10⁻⁶ cm/s"}, {"measurement": "Papp B→A at 2 h, 10 µM", "setting": "[1]", "value": 27.6, "unit": "×10⁻⁶ cm/s"}, {"measurement": "inhibitory effect on tumor growth", "setting": "[2]; 15 mg/kg orally twice a day, P < 0.0001", "value": "significant inhibitory effect on tumor growth"}, {"measurement": "TGI(%)", "setting": "[2]", "value": 59.0, "unit": "%"}]}
{"compound": "[2H][C@](C)(Nc1nc(C)nc2c(N3CCOCC3)c(=O)n(C3(CF)CC3)cc12)c1cccc(C(F)F)c1F", "note": "[Example 55, (R)-4-((1-(3-(difluoromethyl)-2-fluorophenyl)ethyl-1-d)amino)-6-(1-(fluoromethyl)cyclopropyl)-2-methyl-8-morpholinylpyrido[4,3-d]pyrimidine-7(6H)-one]", "values": [{"measurement": "efflux ratio", "setting": "[1]; Caco-2, Papp (B-A)/Papp (A-B)", "value": 4.77}, {"measurement": "Papp A→B at 2 h, 10 µM", "setting": "[1]", "value": 5.09, "unit": "×10⁻⁶ cm/s"}, {"measurement": "Papp B→A at 2 h, 10 µM", "setting": "[1]", "value": 24.3, "unit": "×10⁻⁶ cm/s"}, {"measurement": "TGI(%)", "setting": "[2]", "value": 65.4, "unit": "%"}]}
